These results are taken from US20230391845A1, “GLP-1, GIP AND GLUCAGON RECEPTOR TRIPLE AGONISTS” (priority 2020, published 2023).

This series can be described thus: Pharmacokinetic study in minipigs, i.v. administration. To be noted: minipig, in vivo, iv. Set-up: species or system Göttingen minipigs. How it is done: The purpose of this example is to determine the half-life in vivo of the triple agonists as described herein after i.v. administration to minipigs, i.e. the prolongation of their time in the body and thereby their time of action. This is done in a pharmacokinetic (PK) study, where the terminal half-life of the triple agonist in question is determined. By terminal half-life is generally meant the period of time it takes to halve a certain plasma concentration, measured after the initial distribution phase.
Female Göttingen minipigs were obtained from Ellegaard Göttingen Minipigs (Dalmose, Denmark) approximately 7-14 months of age and weighing from approximately 16-35 kg were used in the studies. The minipigs were housed individually and fed restrictedly once daily with SDS minipig diet (Special Diets Services, Essex, UK).
After at 3 weeks of acclimatisation two permanent central venous catheters were implanted in vena cava caudalis in each animal. The animals were allowed 1 week recovery after the surgery, and were then used for repeated pharmacokinetic studies with a suitable wash-out period between successive dosings.
The animals were fasted for approximately 18 hours before dosing and from 0 to 4 hours after dosing, but had adlibitum access to water during the whole period.
Intravenous injections (the volume corresponding to usually 1.5-2 nmol/kg, for example 0.1 mL/kg) of the triple agonists were given through one catheter, and blood was sampled at predefined time points for up to 14 days post dosing (preferably through the other catheter). Blood samples (for example 0.8 mL) were collected in 8 mM EDTA buffer and then centrifuged at 4° C. and 1942 g for 10 minutes.
Plasma was pipetted into Micronic tubes on dry ice and kept at −20° C. until analysed for plasma concentration of the triple agonists using ELISA, or a similar antibody-based assay, or LCMS. Individual plasma concentration-time profiles were analysed by a non-compartmental model in Phoenix WinNonLin ver. 6.4. (Pharsight Inc., Mountain View, CA, USA), and the resulting terminal half-lives (harmonic mean) determined.

*1 amine or outer side, *2 acyl side, *3 side chain or, on linkers, in order; H or OH if unused. Where a SMILES comes first, the peptide text is derived from it. Side-chain parts run from the residue outwards. [ ]: non-standard residue; d: D form. The star is where a group is joined. X1 = O=C(O)CCCCCCCCCCCCCCCCCCC(=O)NCC1CCC(C(=O)*)CC1; C20 diacid = O=C(O)CCCCCCCCCCCCCCCCCCC(=O)*; C18 diacid = O=C(O)CCCCCCCCCCCCCCCCC(=O)*; γGlu = O=C(O)[C@H](CCC(=O)[*:2])N[*:1]; εLys = N[C@@H](CCCCN[*:1])C(=O)[*:2]; AEEA = NCCOCCOCC(=O)O; Aib = CC(C)(N)C(=O)O

Where the note is “female, Göttingen”, `CC(C)C[C@H](NC(=O)[C@H](CC(C)C)NC(=O)[C@H](Cc1c[nH]c2ccccc12)NC(=O)[C@H](CCC(N)=O)NC(=O)[C@@H](NC(=O)[C@H](Cc1ccccc1)NC(=O)[C@H](CCC(=O)O)NC(=O)C(C)(C)NC(=O)[C@H](C)NC(=O)[C@H](C)NC(=O)[C@H](CCC(N)=O)NC(=O)[C@H](CCCCNC(=O)[C@@H](N)CCCCNC(=O)[C@@H](N)CCCCNC(=O)CC[C@H](NC(=O)CCCCCCCCCCCCCCCCC(=O)O)C(=O)O)NC(=O)[C@H](CCC(=O)O)NC(=O)[C@H](CC(C)C)NC(=O)[C@H](Cc1ccc(O)cc1)NC(=O)[C@H](Cc1ccc(O)cc1)NC(=O)[C@H](CO)NC(=O)[C@H](Cc1ccc(O)cc1)NC(=O)[C@H](CC(=O)O)NC(=O)[C@H](CO)NC(=O)[C@@H](NC(=O)[C@H](Cc1ccccc1)NC(=O)[C@@H](NC(=O)CNC(=O)[C@H](Cc1c[nH]cn1)NC(=O)C(C)(C)NC(=O)[C@@H](N)Cc1c[nH]cn1)[C@@H](C)O)[C@@H](C)O)C(C)C)C(=O)N[C@@H](CCC(=O)O)C(=O)NCC(=O)NCC(=O)N1CCC[C@H]1C(=O)N[C@@H](CO)C(=O)N[C@@H](CO)C(=O)NCC(=O)N[C@@H](C)C(=O)N1CCC[C@H]1C(=O)N1CCC[C@H]1C(=O)N1CCC[C@H]1C(=O)N[C@@H](CO)C(N)=O` [Compound No. 32] (H-H[Aib]HGTFTSDYSYYLEK([εLys-εLys-γGlu-C18 diacid])QAA[Aib]EFVQWLLEGGPSSGAPPPS-NH2) had a half-life of 52 h.

Regarding `CC(C)C[C@H](NC(=O)[C@H](CC(C)C)NC(=O)[C@H](Cc1c[nH]c2ccccc12)NC(=O)[C@H](CCC(N)=O)NC(=O)[C@@H](NC(=O)[C@H](Cc1ccccc1)NC(=O)[C@H](CCC(=O)O)NC(=O)C(C)(C)NC(=O)[C@H](C)NC(=O)[C@H](C)NC(=O)[C@H](CCC(N)=O)NC(=O)[C@H](CCCCNC(=O)[C@@H](N)CCCCNC(=O)[C@@H](N)CCCCNC(=O)CC[C@H](NC(=O)C1CCC(CNC(=O)CCCCCCCCCCCCCCCCCCC(=O)O)CC1)C(=O)O)NC(=O)[C@H](CCC(=O)O)NC(=O)[C@H](CC(C)C)NC(=O)[C@H](Cc1ccc(O)cc1)NC(=O)[C@H](Cc1ccc(O)cc1)NC(=O)[C@H](CO)NC(=O)[C@H](Cc1ccc(O)cc1)NC(=O)[C@H](CC(=O)O)NC(=O)[C@H](CO)NC(=O)[C@@H](NC(=O)[C@H](Cc1ccccc1)NC(=O)[C@@H](NC(=O)CNC(=O)[C@H](Cc1c[nH]cn1)NC(=O)C(C)(C)NC(=O)[C@@H](N)Cc1c[nH]cn1)[C@@H](C)O)[C@@H](C)O)C(C)C)C(=O)N[C@@H](CCC(=O)O)C(=O)NCC(=O)NCC(=O)N1CCC[C@H]1C(=O)N[C@@H](CO)C(=O)N[C@@H](CO)C(=O)NCC(=O)N[C@@H](C)C(=O)N1CCC[C@H]1C(=O)N1CCC[C@H]1C(=O)N1CCC[C@H]1C(=O)N[C@@H](CO)C(N)=O` (some centres unmarked) [Compound No. 25] (H-H[Aib]HGTFTSDYSYYLEK([εLys-εLys-γGlu-X1])QAA[Aib]EFVQWLLEGGPSSGAPPPS-NH2; N-terminus assumed), the half-life is 79 h.

Consider `CC[C@H](C)[C@H](NC(=O)[C@H](CO)NC(=O)[C@H](Cc1ccc(O)cc1)NC(=O)[C@H](CC(=O)O)NC(=O)[C@H](CO)NC(=O)[C@@H](NC(=O)[C@H](Cc1ccccc1)NC(=O)[C@@H](NC(=O)CNC(=O)[C@H](CCC(N)=O)NC(=O)C(C)(C)NC(=O)[C@@H](N)Cc1ccc(O)cc1)[C@@H](C)O)[C@@H](C)O)C(=O)N[C@@H](Cc1ccc(O)cc1)C(=O)N[C@@H](CC(C)C)C(=O)N[C@@H](CC(=O)O)C(=O)N[C@@H](CCCCN)C(=O)N[C@@H](CCC(N)=O)C(=O)N[C@@H](C)C(=O)N[C@@H](C)C(=O)NC(C)(C)C(=O)N[C@@H](CCCCNC(=O)COCCOCCNC(=O)COCCOCCNC(=O)CC[C@H](NC(=O)CCCCCCCCCCCCCCCCCCC(=O)O)C(=O)O)C(=O)N[C@@H](Cc1ccccc1)C(=O)N[C@H](C(=O)N[C@@H](CCC(N)=O)C(=O)N[C@@H](Cc1c[nH]c2ccccc12)C(=O)N[C@@H](CC(C)C)C(=O)N[C@@H](CC(C)C)C(=O)N[C@@H](CCC(=O)O)C(=O)NCC(=O)NCC(=O)N1CCC[C@H]1C(=O)N[C@@H](CO)C(=O)N[C@@H](CO)C(=O)NCC(=O)N[C@@H](C)C(=O)N1CCC[C@H]1C(=O)N1CCC[C@H]1C(=O)N1CCC[C@H]1C(=O)N[C@@H](CO)C(N)=O)C(C)C` [Compound No. 7] (H-Y[Aib]QGTFTSDYSIYLDKQAA[Aib]K([AEEA-AEEA-γGlu-C20 diacid])FVQWLLEGGPSSGAPPPS-NH2; N-terminus assumed), for which the half-life (female, Göttingen) was 79 h.

With `CC[C@H](C)[C@H](NC(=O)[C@H](CO)NC(=O)[C@H](Cc1ccc(O)cc1)NC(=O)[C@H](CC(=O)O)NC(=O)[C@H](CO)NC(=O)[C@@H](NC(=O)[C@H](Cc1ccccc1)NC(=O)[C@@H](NC(=O)CNC(=O)[C@H](CCC(N)=O)NC(=O)C(C)(C)NC(=O)[C@@H](N)Cc1ccc(O)cc1)[C@@H](C)O)[C@@H](C)O)C(=O)N[C@@H](Cc1ccc(O)cc1)C(=O)N[C@@H](CC(C)C)C(=O)N[C@@H](CC(=O)O)C(=O)N[C@@H](CCCCN)C(=O)N[C@@H](CCC(N)=O)C(=O)N[C@@H](C)C(=O)N[C@@H](C)C(=O)NC(C)(C)C(=O)N[C@@H](CCCCNC(=O)COCCOCCNC(=O)COCCOCCNC(=O)CC[C@H](NC(=O)C1CCC(CNC(=O)CCCCCCCCCCCCCCCCCCC(=O)O)CC1)C(=O)O)C(=O)N[C@@H](Cc1ccccc1)C(=O)N[C@H](C(=O)N[C@@H](CCC(N)=O)C(=O)N[C@@H](Cc1c[nH]c2ccccc12)C(=O)N[C@@H](CC(C)C)C(=O)N[C@@H](CC(C)C)C(=O)N[C@@H](CCC(=O)O)C(=O)NCC(=O)NCC(=O)N1CCC[C@H]1C(=O)N[C@@H](CO)C(=O)N[C@@H](CO)C(=O)NCC(=O)N[C@@H](C)C(=O)N1CCC[C@H]1C(=O)N1CCC[C@H]1C(=O)N1CCC[C@H]1C(=O)N[C@@H](CO)C(N)=O)C(C)C` (some centres unmarked) [Compound No. 8] (H-Y[Aib]QGTFTSDYSIYLDKQAA[Aib]K([AEEA-AEEA-γGlu-X1])FVQWLLEGGPSSGAPPPS-NH2; N-terminus assumed), the half-life is 81 h.

In the case of `CC[C@H](C)[C@H](NC(=O)[C@H](CO)NC(=O)[C@H](Cc1ccc(O)cc1)NC(=O)[C@H](CC(=O)O)NC(=O)[C@H](CO)NC(=O)[C@@H](NC(=O)[C@H](Cc1ccccc1)NC(=O)[C@@H](NC(=O)CNC(=O)[C@H](CCC(N)=O)NC(=O)C(C)(C)NC(=O)[C@@H](N)Cc1ccc(O)cc1)[C@@H](C)O)[C@@H](C)O)C(=O)N[C@@H](Cc1ccc(O)cc1)C(=O)N[C@@H](CC(C)C)C(=O)N[C@@H](CC(=O)O)C(=O)N[C@@H](CCCCNC(=O)COCCOCCNC(=O)COCCOCCNC(=O)CC[C@H](NC(=O)CCCCCCCCCCCCCCCCCCC(=O)O)C(=O)O)C(=O)N[C@@H](CCC(N)=O)C(=O)N[C@@H](C)C(=O)N[C@@H](C)C(=O)NC(C)(C)C(=O)N[C@@H](CCC(=O)O)C(=O)N[C@@H](Cc1ccccc1)C(=O)N[C@H](C(=O)N[C@@H](CC(N)=O)C(=O)N[C@@H](Cc1c[nH]c2ccccc12)C(=O)N[C@@H](CC(C)C)C(=O)N[C@@H](CC(C)C)C(=O)N[C@@H](C)C(=O)NCC(=O)NCC(=O)N1CCC[C@H]1C(=O)N[C@@H](CO)C(=O)N[C@@H](CO)C(=O)NCC(=O)N[C@@H](C)C(=O)N1CCC[C@H]1C(=O)N1CCC[C@H]1C(=O)N1CCC[C@H]1C(=O)N[C@@H](CO)C(N)=O)C(C)C` [Compound No. 5] (H-Y[Aib]QGTFTSDYSIYLDK([AEEA-AEEA-γGlu-C20 diacid])QAA[Aib]EFVNWLLAGGPSSGAPPPS-NH2; N-terminus assumed), the half-life (female, Göttingen) was 85 h.
